Laboratory results published in paper PMC9501377, “New Diarylamine KV10.1 Inhibitors and Their Anticancer Potential” (Pharmaceutics, 2022).

What was measured:
KV10.1 = biological target: T1, KV10.1 (Homo sapiens, UniProt O95259); assay: Two-electrode voltage-clamp on Xenopus laevis oocytes expressing KV10.1; type: cell-based; conditions: voltage-clamped
T1 construct: expressed in transfected cells; host or cells: Xenopus laevis oocytes (cRNA injection)
T1 sequence (O95259 1-989): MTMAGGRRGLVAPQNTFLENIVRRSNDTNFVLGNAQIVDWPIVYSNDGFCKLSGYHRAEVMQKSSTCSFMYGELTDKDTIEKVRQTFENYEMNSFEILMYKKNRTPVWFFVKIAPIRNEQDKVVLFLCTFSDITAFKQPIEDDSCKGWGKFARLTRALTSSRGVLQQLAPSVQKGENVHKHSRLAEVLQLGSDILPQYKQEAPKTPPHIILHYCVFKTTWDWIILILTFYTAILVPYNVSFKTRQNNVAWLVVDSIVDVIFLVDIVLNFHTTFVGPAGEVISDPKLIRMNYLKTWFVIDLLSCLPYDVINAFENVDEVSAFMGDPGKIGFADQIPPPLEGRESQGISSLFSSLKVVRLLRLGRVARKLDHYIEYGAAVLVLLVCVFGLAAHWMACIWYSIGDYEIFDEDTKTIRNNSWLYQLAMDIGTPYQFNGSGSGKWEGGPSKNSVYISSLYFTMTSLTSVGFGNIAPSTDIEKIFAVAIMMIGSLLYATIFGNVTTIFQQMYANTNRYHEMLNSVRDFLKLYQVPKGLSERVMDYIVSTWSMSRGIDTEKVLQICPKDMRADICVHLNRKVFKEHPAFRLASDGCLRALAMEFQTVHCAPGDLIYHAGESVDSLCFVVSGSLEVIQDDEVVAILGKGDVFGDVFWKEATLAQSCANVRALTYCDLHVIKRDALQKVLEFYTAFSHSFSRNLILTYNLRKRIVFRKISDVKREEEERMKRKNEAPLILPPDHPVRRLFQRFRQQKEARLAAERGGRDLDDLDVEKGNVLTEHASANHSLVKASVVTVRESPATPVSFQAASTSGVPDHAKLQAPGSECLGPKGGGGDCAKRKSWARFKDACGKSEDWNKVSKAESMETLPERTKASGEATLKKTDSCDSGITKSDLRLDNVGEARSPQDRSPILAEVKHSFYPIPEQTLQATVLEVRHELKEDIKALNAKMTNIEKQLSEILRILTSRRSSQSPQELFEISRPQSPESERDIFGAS
From the text: (§1) Stage V–VI oocytes were isolated by partial ovariectomy from Xenopus laevis frogs (African clawed frog). Mature female frogs were purchased from CRB Xénopes (Rennes, France) and were housed in the Aquatic Facility (KU Leuven) in compliance with the regulations of the European Union (EU) concerning the welfare of laboratory animals as declared in Directive 2010/63/EU. The use of Xenopus laevis was approved by the Animal Ethics Committee of the KU Leuven (Project nr. P186/2019). After anesthetising the frogs by a 15 min submersion in 0.1% tricaine methanesulphonate (pH 7.0), the oocytes were collected. The isolated oocytes were then washed with a 1.5 mg/mL collagenase solution for 2 h to remove the follicle layer.
(§2) Ion channels (KV10.1 and hERG) were expressed in Xenopus laevis oocytes, by linearisation of the plasmids and subsequent in vitro transcription using a commercial T7 or SP6 mMESSAGE mMACHINE transcription kit (Ambion, Carlsbad, CA, USA). Defolliculated Xenopus oocytes were then injected with 20–50 nL of the cRNA at a concentration of 1 ng/nL using a micro-injector (Drummond Scientific1, Broomall, PA, USA). The oocytes were incubated in a solution containing (in mM): NaCl, 96; KCl, 2; CaCl2, 1.8; MgCl2, 2 and HEPES, 5 (pH 7.4), supplemented with 50 mg/L gentamycin sulphate and […]. After ex vivo translation, the ion channels are correctly inserted in the cell membrane of the oocytes.
(§3) Two-electrode voltage-clamp recordings were performed at room temperature (18–22 °C) using a Geneclamp 500 amplifier (Molecular Devices, San Jose, CA, USA) controlled by a pClamp data acquisition system (Axon Instruments1, Union City, CA, USA) and using an integrated digital TEVC amplifier controlled by HiClamp, an automated Voltage-Clamp Screening System (Multi Channel Systems MCS GmbH, Reutlingen, Germany). Whole-cell currents from oocytes were recorded 1–7 days after injection. The bath solution composition was ND96 (in mM): NaCl, 96; KCl, 2; CaCl2, 1.8; MgCl2, 2 and HEPES, 5 (pH 7.5). Voltage and current electrodes were filled with a 3 M solution of KCl in H2O. Resistances of both electrodes were kept between 0.5 and 1.5 MΩ. The elicited Kv10.1 and hERG currents were filtered at 0.5 kHz and sampled at 2 kHz using a four-pole low-pass Bessel filter. Leak subtraction was performed using a p/4 protocol. Starting from a holding potential of −90 mV, currents for Kv10.1 were evoked by 1 s depolarizing pulses to 0 mV and currents for hERG were evoked by 2.5 s depolarizing prepulses to +40 mV, followed by hyperpolarizing pulses to −120 mV for 2.5 s. The concentration dependency of all compounds was assessed by measuring the current inhibition in the presence of increasing compound concentrations. To this end, a stock solution of the compounds was prepared in 100% DMSO for the sake of solubility. From this stock solution, adequate dilutions with a maximum of 0.5% DMSO were made for testing. The data of the concentration–response curves were fitted with the Hill equation: y = 100/{1 + (IC50/[compound])^h}, where y is the amplitude of the compound- induced effect, IC50 is the compound concentration at half-maximal efficacy, (compound) is the compound concentration, and h is the Hill coefficient.
(§4) All electrophysiological data are presented as means ± SEM of n ≥ 3 independent experiments unless otherwise indicated. Oocyte data were analysed using pClamp Clampfit 10.4 (Molecular Devices, Downingtown, PA, USA) and OriginPro 9 (Originlab, Northampton, MA, USA) or GraphPad Prism 8 software (GraphPad Software, Inc., San Diego, CA, USA). Patch-clamp data analysis was performed using FitMaster (HEKA Electronics), IgorPro (Wavemetrics, Inc., Lake Oswego, OR, USA) and GraphPad Prism 9 (GraphPad Software, Inc., San Diego, CA, USA). The Dunnett test and one-way ANOVA were performed to calculate the significance of the induced inhibition compared to the control (p < 0.05).

hERG = hERG (Homo sapiens, UniProt Q12809); assay: Two-electrode voltage-clamp on Xenopus laevis oocytes expressing hERG; type: cell-based; design: expressed in transfected cells; host or cells: Xenopus laevis oocytes (cRNA injection); conditions: voltage-clamped; for inhibition at 10 µM: human, Xenopus laevis oocytes expressing hERG, pH 7.5, 10 μM
From the text: as §1, §2, §3, §4

Sequence of hERG (Q12809 whole entry): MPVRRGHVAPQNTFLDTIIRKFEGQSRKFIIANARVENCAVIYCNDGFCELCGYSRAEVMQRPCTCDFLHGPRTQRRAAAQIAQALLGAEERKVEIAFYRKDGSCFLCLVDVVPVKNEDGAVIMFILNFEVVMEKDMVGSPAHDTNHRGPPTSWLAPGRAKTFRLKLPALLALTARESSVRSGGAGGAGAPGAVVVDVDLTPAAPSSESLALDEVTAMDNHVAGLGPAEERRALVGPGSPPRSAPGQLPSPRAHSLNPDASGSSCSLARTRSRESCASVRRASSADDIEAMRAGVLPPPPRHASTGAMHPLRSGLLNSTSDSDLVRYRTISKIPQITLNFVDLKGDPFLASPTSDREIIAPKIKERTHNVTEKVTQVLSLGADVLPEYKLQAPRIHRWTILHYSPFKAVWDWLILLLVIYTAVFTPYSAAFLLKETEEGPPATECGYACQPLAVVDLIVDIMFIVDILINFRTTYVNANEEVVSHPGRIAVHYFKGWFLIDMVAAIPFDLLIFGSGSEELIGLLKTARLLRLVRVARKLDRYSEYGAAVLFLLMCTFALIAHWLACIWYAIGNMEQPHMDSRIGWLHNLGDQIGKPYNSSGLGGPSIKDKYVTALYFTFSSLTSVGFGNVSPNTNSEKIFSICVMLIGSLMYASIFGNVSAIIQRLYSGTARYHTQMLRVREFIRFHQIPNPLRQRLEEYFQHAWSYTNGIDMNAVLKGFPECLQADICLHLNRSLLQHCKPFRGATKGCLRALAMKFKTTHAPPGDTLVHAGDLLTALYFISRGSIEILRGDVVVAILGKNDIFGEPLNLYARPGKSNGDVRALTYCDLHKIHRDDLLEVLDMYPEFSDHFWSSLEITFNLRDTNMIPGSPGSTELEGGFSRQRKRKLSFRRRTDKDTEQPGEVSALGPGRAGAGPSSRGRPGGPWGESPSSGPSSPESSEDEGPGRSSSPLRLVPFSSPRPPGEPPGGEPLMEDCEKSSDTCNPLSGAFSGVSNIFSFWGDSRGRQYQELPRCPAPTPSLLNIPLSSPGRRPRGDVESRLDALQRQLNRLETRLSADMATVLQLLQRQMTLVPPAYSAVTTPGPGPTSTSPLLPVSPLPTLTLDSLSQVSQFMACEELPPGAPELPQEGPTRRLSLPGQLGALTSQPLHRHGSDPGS

Molecule	inhibition at 10 µM (KV10.1; 10 μM) [%]	IC50 (KV10.1) [µM]	% of Kv10.1 inhibition at 10 μM (Xenopus laevis oocytes) (KV10.1; 10 μM)	inhibition at 10 µM (hERG) [%]	IC50 (hERG) [µM]	% of hERG inhibition at 10 μM (Xenopus laevis oocytes) (hERG; 10 μM)
CN(C)CCOc1c(Cl)cc(Nc2ccc(C(F)(F)F)cc2[N+](=O)[O-])cc1Cl [Compound 18c, 3,5-Dichloro-4-(2-(dimethylamino)ethoxy)-N-(2-nitro-4-(trifluoromethyl)phenyl)aniline]	58.2	19 ± 2.85		76.8	0.66 ± 0.27	
O=[N+]([O-])c1cc(C(F)(F)F)ccc1Nc1ccc(OCCN2CCCC2)cc1 [Compound 19, 2-Nitro-N-(4-(2-(pyrrolidin-1-yl)ethoxy)phenyl)-4-(trifluoromethyl)aniline]	55.7			65.9		
Methyl 2-((4-(2-hydroxy-3-morpholinopropoxy)phenyl)amino)benzoate [Compound 5e]			-2.17% ± 3.06			37.32% ± 13.11

Continued, in another order:

inhibition at 10 µM (KV10.1; 10 μM) [%]	IC50 (KV10.1) [µM]	% of Kv10.1 inhibition at 10 μM (Xenopus laevis oocytes) (KV10.1; 10 μM)	Molecule	inhibition at 10 µM (hERG) [%]	IC50 (hERG) [µM]	% of hERG inhibition at 10 μM (Xenopus laevis oocytes) (hERG; 10 μM)
36.3	12.93 ± 0.04		O=[N+]([O-])c1cc(C(F)(F)F)ccc1Nc1ccc(OCCN2CCCCC2)cc1 [Compound 20, 2-Nitro-N-(4-(2-(piperidin-1-yl)ethoxy)phenyl)-4-(trifluoromethyl)aniline]	75.6	0.59 ± 0.01	
43.4	13.3 ± 1.89		O=[N+]([O-])c1cc(C(F)(F)F)ccc1Nc1ccc(OCCN2CCCCCC2)cc1 [Compound 21, N-(4-(2-(Azepan-1-yl)ethoxy)phenyl)-2-nitro-4-(trifluoromethyl)aniline]	77.5 ± 5.71	1.34 ± 0.32	
